Data from patent US11667629B2, “Isoxazole derivative, preparation method therefor, and use thereof” (SICHUAN KELUN-BIOTECH BIOPHARMACEUTICAL CO., LTD., priority 2017, dated 2023).

Key:
[1] = Liver microsomal stability test, human; format: in vitro ADME
Protocol: (§1) The test compound (50 μL) was mixed with the liver microsome (100 μL) of each species, after pre-incubation at 37° C. for 5 minutes, NADPH (50 μL) was added, and the incubation was performed for 0, 30, and 60 minutes. The incubation concentrations of the test compound, NADPH, and liver microsomal enzyme were 1 μM, 1 mM, and 0.5 mg/mL, respectively. Ice-cold acetonitrile (200 μL) was added to stop the reaction, and an appropriate volume of the internal standard was then added. After the vortex and centrifugation process, the supernatant was obtained and detected.
(§2) LC-MS/MS, wherein the mass spectrometer was API 5500, and the liquid chromatograph was Shimadzu LC-30AD system. The chromatographic column was Hypersil GOLD C18, 1.9 μm particle size, 50×2.1 mm; mobile phase A was water+0.1% formic acid, phase B was acetonitrile; flow rate was 0.55 mL/min, and column temperature was 40° C. The ion source was an ESI source positive ion mode, and the scanning mode is multiple reaction monitoring (MRM).
(§3) By determining the concentrations of the samples at different incubation time, the rate constant was obtained by plotting “Ln (amount of the remained drug %)” versus “incubation time”. The half-life and liver clearance rate of the drug were then calculated, and were used to evaluate the metabolic stability of the drug in liver microsome.

[2] = Liver microsomal stability test, mouse; format: in vitro ADME; settings: liver microsomes; mouse liver microsome, 1 μM compound, 0.5 mg/mL, NADPH
Protocol: as §1, §2, §3

FXR [3] = target: T1, FXR (Homo sapiens, UniProt Q96RI1); assay: Luciferase reporter gene assay (HEK293 cotransfected with FXR and human BSEP luciferase reporter); format: cell-based
T1 construct: expressed in transfected cells; host or cells: HEK293
T1 sequence (Q96RI1 1-486): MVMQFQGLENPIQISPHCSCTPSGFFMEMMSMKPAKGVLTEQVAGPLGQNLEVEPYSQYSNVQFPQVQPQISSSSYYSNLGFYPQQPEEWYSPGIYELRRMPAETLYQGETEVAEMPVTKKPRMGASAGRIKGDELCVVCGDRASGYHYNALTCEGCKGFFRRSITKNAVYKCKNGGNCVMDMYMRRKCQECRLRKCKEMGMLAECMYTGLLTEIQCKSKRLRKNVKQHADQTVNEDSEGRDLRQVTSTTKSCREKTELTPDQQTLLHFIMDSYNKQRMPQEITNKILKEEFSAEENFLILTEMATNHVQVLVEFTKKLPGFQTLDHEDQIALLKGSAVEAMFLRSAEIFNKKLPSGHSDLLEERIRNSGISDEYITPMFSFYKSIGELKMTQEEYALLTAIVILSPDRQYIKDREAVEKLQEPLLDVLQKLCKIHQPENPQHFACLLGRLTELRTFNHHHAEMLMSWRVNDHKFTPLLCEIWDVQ
Protocol: Human embryonic kidney cells HEK293 were cultured in a DMEM medium containing 10% FBS. Plasmids were cotransfected to allow the cells to have over expression of FXR and human BSEP luciferase reporter genes. The transfected cells were digested, resuspended, counted, and plated in a multi-well plate. 10 μL of the test compound at various concentrations was added to the multi-well plate to result in final concentrations of 64 μM, 16 μM, 4 μM, 1 μM, 0.25 μM, 0.0625 μM, 0.0156 μM, 0.0039 μM, 0.000975 μM, 0.000244 μM, 0 μM, and the final concentration of DMSO was 0.5%. After the test compound was incubated with the cells for 18 hours, the Brigh-Glo™ detection reagent was added, and the chemical light unit value (RLU) was detected by a multifunctional automatic microplate reader. Taking the signal value of the blank well (without the test compound) as 100%, the relative signal percentage (%) at each concentration of the test compound was calculated. The SigmaPlot 10 software was employed to fit the EC50 and the maximum activation effect Emax (relative signal percentage) of the test compounds using a four-parameter model.

FXR [4] = target: T2, FXR (Homo sapiens, UniProt Q96RI1); assay: Bile acid receptor FXR coactivator binding assay (LanthaScreen TR-FRET); format: biochemical
T2 construct: purchased Invitrogen
Protocol: The Invitrogen⋅LanthaScreen™ TR-FRET Farnesoid X Receptor Coactivator Assay kit was employed to determine the activation effect of the compounds on FXR.
After the receptor was incubated with the test compound at various concentrations at room temperature, the fluorescent-labeled coactivator short peptides and terbium-labeled antibody were added, and the FRET signal was detected after the reaction was complete at room temperature. The group without the receptor protein was employed as a blank, the activation effect (EC50) and maximum activation effect signal value (Emax) of the test compounds on FXR were calculated according to the four-parameter fitting equation: y=E min+(E max−E min)/(1+(x/EC50)^(−Hillslope))

[5] = Liver microsomal stability test, rat; format: in vitro ADME; settings: liver microsomes; rat liver microsome, 1 μM compound, 0.5 mg/mL, NADPH
Protocol: as §1, §2, §3

[6] = Liver microsomal stability test, dog; format: in vitro ADME; settings: liver microsomes; dog liver microsome, 1 μM compound, 0.5 mg/mL, NADPH
Protocol: as §1, §2, §3

O=C(O)c1ccc(-c2csc(N3[C@@H]4CC[C@H]3C[C@@H](OCc3c(-c5ccccc5OC(F)(F)F)noc3C3CC3)C4)n2)cc1C(F)(F)F [Compound C46, 4-(2-((1R,3r,5S)-3-((5-cyclopropyl-3-(2-(trifluoromethoxy)phenyl)isoxazol-4-yl)methoxy)-8-azabicyclo[3.2.1]octan-8-yl)thiazol-4-yl)-2-(trifluoromethyl)benzoic acid]
clearance rate in human liver microsome [1]: 14.9 mL/min/kg | CLint scaled at 1 μM [2]: 15.3 mL/min/kg | half-life at 1 μM [2]: 2.5 h | EC50 (FXR [3]; HEK293, 18 hours incubation): 14 ± 5 nM | Emax (FXR [3]; HEK293, maximum activation effect, relative signal percentage, blank well = 100%): 301% | EC50 (FXR [4]; TR-FRET coactivator assay, four-parameter fit, read-out: EC50 of the compounds on FXR): 2 ± 1 nM | Emax (FXR [4]; read-out: Relative activation effect): 196% | CLint scaled at 1 μM [5]: 0.96 mL/min/kg | half-life at 1 μM [5]: 16.1 h | CLint scaled at 1 μM [6]: 8.03 mL/min/kg | half-life at 1 μM [6]: 4.32 h
